Tests used:
Experiment in all cases: relative viability (nuclei count vs DMSO), 5 days (fraction); higher = more cells survive
[1] = test system: SK-LU-1
How it was run: (§1)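 Relative viability is defined as nuclei in treated wells over nuclei in vehicle wells. Duplicate plates were run and medians reported. Lung cancer cell lines in 1536-well plates were dosed by pin tool one day after seeding, with one drug or with a fixed anchor-drug dose plus five library-drug doses (not always all listed) in √10 steps, and nuclei were counted after 5 days.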

[2] = test system: NCI-H1734
How it was run: as §1

[3] = test system: HCC-78
How it was run: as §1

[4] = test system: HCC-15
How it was run: as §1

[5] = test system: LXF-289
How it was run: as §1

[6] = test system: NCI-H1915
How it was run: as §1

[7] = test system: NCI-H358
How it was run: as §1

[8] = test system: NCI-H1975
How it was run: as §1

[9] = test system: NCI-H1755
How it was run: as §1

[10] = test system: NCI-H2228
How it was run: as §1

[11] = test system: NCI-H2347
How it was run: as §1

Structure (SMILES): NC(=O)Nc1cc(-c2cccc(F)c2)sc1C(=O)N[C@H]1CCCNC1 [AZD7762] + CS(=O)(=O)CCNCc1ccc(-c2ccc3ncnc(Nc4ccc(OCc5cccc(F)c5)c(Cl)c4)c3c2)o1 [Lapatinib] (partner 2 µM)
- relative viability ([1]; first compound 0.01 µM): 0.943
- relative viability ([1]; first compound 0.03162 µM): 0.714
- relative viability ([1]; first compound 0.1 µM): 0.456
- relative viability ([1]; first compound 0.3162 µM): 0.276
- relative viability ([1]; first compound 1 µM): 0.217
- relative viability ([2]; first compound 0.01 µM): 0.974
- relative viability ([2]; first compound 0.03162 µM): 1.16
- relative viability ([2]; first compound 0.1 µM): 1.13
- relative viability ([2]; first compound 0.3162 µM): 0.946
- relative viability ([2]; first compound 1 µM): 0.67
- relative viability ([3]; first compound 0.01 µM): 0.863
- relative viability ([3]; first compound 0.03162 µM): 0.791
- relative viability ([3]; first compound 0.1 µM): 0.842
- relative viability ([3]; first compound 0.3162 µM): 0.653
- relative viability ([3]; first compound 1 µM): 0.304
- relative viability ([4]; first compound 0.01 µM): 0.842
- relative viability ([4]; first compound 0.03162 µM): 0.823
- relative viability ([4]; first compound 0.1 µM): 0.807
- relative viability ([4]; first compound 0.3162 µM): 0.782
- relative viability ([4]; first compound 1 µM): 0.907
- relative viability ([5]; first compound 0.01 µM): 0.906
- relative viability ([5]; first compound 0.03162 µM): 0.909
- relative viability ([5]; first compound 0.1 µM): 0.973
- relative viability ([5]; first compound 0.3162 µM): 0.912
- relative viability ([5]; first compound 1 µM): 0.983
- relative viability ([6]; first compound 0.01 µM): 1
- relative viability ([6]; first compound 0.03162 µM): 1
- relative viability ([6]; first compound 0.1 µM): 0.943
- relative viability ([6]; first compound 0.3162 µM): 0.909
- relative viability ([6]; first compound 1 µM): 0.933
- relative viability ([7]; first compound 0.01 µM): 0.478
- relative viability ([7]; first compound 0.03162 µM): 0.537
- relative viability ([7]; first compound 0.1 µM): 0.497
- relative viability ([7]; first compound 0.3162 µM): 0.451
- relative viability ([7]; first compound 1 µM): 0.327
- relative viability ([8]; first compound 0.01 µM): 0.89
- relative viability ([8]; first compound 0.03162 µM): 0.831
- relative viability ([8]; first compound 0.1 µM): 0.776
- relative viability ([8]; first compound 0.3162 µM): 0.639
- relative viability ([8]; first compound 1 µM): 0.398
- relative viability ([9]; first compound 0.01 µM): 1.07
- relative viability ([9]; first compound 0.03162 µM): 1.1
- relative viability ([9]; first compound 0.1 µM): 1.17
- relative viability ([9]; first compound 0.3162 µM): 0.924
- relative viability ([9]; first compound 1 µM): 0.364
- relative viability ([10]; first compound 0.01 µM): 1.28
- relative viability ([10]; first compound 0.03162 µM): 1.46
- relative viability ([10]; first compound 0.1 µM): 1.22
- relative viability ([10]; first compound 0.3162 µM): 0.34
- relative viability ([10]; first compound 1 µM): 0.231
- relative viability ([11]; first compound 0.01 µM): 1.11
- relative viability ([11]; first compound 0.03162 µM): 0.986
- relative viability ([11]; first compound 0.1 µM): 1.07
- relative viability ([11]; first compound 0.3162 µM): 0.934
- relative viability ([11]; first compound 1 µM): 1.17
